The subject of assay [1] is NCI-H1975 lung cancer patient-derived xenograft (CDX). In words: Pharmacodynamics study in vivo, NCI-H1975 xenograft (CDX) model. Set-up: species or system BALB/c nude mice. Particulars: AZD9291 5 mg/kg; for Tumor Volume (mm^3) 4 days: day 4, oral daily: compound 30 10 mg/kg, 33, 34, 40, 42, 43 20 mg/kg; for Tumor Volume (mm^3) 7 days: day 7, oral daily: compound 30 10 mg/kg, 33, 34, 40, 42, 43 20 mg/kg; for Tumor Volume (mm^3) 11 days: day 11, oral daily: compound 30 10 mg/kg, 33, 34, 40, 42, 43 20 mg/kg; for Tumor Volume (mm^3) 14 days: day 14, oral daily: compound 30 10 mg/kg, 33, 34, 40, 42, 43 20 mg/kg; for Tumor Volume (mm^3) 18 days: day 18, oral daily: compound 30 10 mg/kg, 33, 34, 40, 42, 43 20 mg/kg. Here is the method:
(§1) For example, after 21 days of administration, the tumor volume of the representative compounds 30, 33, 34, 40, 42 and 43 decreased from the beginning of about 149 mm^3 to 3-39 mm^3.
(§2) The pharmacological experiments in vivo were performed on BALB/c nude mice that subcutaneously implanted NCI-H1975 lung cancer […] xenograft (CDX).
(§3) BALB/c nude mice, female, 6-8 weeks, weighted about 18-22 grams, the mice were kept in a special pathogen-free environment, and in a single ventilation cage (5 mice per cage). The bedding and water of all the cages were disinfected before use. All animals were free to obtain standard certified commercial laboratory diets. A total of 100 mice were purchased from Beijing Vital for research. The tumor tissue (20-30 mm^3) was implanted subcutaneously in the […] of each mouse for tumor growth. The experiment was started when the average tumor volume reached about 150-200 mm^3. The test compound was orally administered daily (compound 30 was administered at 10 mg/kg, compound 33, 34, 40, 42 and 43 were administered at 20 mg/kg and compound AZD9291 was administered continuously for 21 days at 5 mg/kg, the data were shown in Table 3). The tumor volume was measured twice a week with a two-dimensional caliper and the volume was measured in cubic millimeters and calculated by the following formula: V=V=0.5 a×b2, where a and b were the major and minor diameters of the tumor, respectively.

For assay [2], the system named is NCI-H1975 lung cancer xenograft (CDX). Described as above. The arrangement: species or system BALB/c nude mice. To be noted: day 0, oral daily: compound 30 10 mg/kg, 33, 34, 40, 42, 43 20 mg/kg, AZD9291 5 mg/kg. The procedure: as §1, §2, §3
For assay [3], the system named is human skin squamous cell A431 xenograft (CDX). Nature of the assay: Selectivity study in vivo, A431 xenograft (CDX) model. The arrangement: species or system BALB/c nude mice. To be noted: Table 5 experiment, AZD9291 5 mg/kg. The procedure:
In this model, the less inhibitory effect on the tumor, the better the selectivity in vivo.
The selective experiments in vivo were performed on BALB/c nude mice that subcutaneously implanted human skin squamous cell A431 xenograft (CDX).
BALB/c nude mice, female, 6-8 weeks, weighted about 18-20 grams, the mice were kept in a special pathogen-free environment and in a single ventilation cage (5 mice per cage). The bedding and water of all the cages were disinfected before use. All animals were free to obtain standard certified commercial laboratory diets. All mice were purchased from mice of Shanghai BK Laboratory Animal Co., LTD for research. The tumor tissue (20-30 mm^3) was implanted subcutaneously in the […] of each mouse for tumor growth. The experiment was started when the average tumor volume reached about 150-200 mm^3. The test compound was orally administered (compounds 17, 30, 37 and 38 were administered once daily at 20 mg/kg, the compound AZD9291 was administered once daily at 5 mg/kg, the compound CO-1686 was administered twice daily at 50 mg/kg, the compound Erlotinib was administered once daily at 75 mg/kg and the compound Afatinib was administered once daily at 7.5 mg/kg, 21 days of continuous administration. The data were shown in Table 4; compounds 33, 34, 40, 42 and 43 were administered once daily at 20 mg/kg and compound AZD9291 was administered once daily at5 mg/kg, 21 days of continuous administration. The tumor volume was measured twice a week with a two-dimensional caliper and the volume was measured in cubic millimeters and calculated by the following formula: V=V=0.5 a×b2, where a and b were the major and minor diameters of the tumor, respectively.

For assay [4], the target named is T1, EGFR wild type (Homo sapiens, UniProt P00533).
T1 construct: purchased Life technology (Madison, Wis.)
T1 sequence (P00533 25-1210): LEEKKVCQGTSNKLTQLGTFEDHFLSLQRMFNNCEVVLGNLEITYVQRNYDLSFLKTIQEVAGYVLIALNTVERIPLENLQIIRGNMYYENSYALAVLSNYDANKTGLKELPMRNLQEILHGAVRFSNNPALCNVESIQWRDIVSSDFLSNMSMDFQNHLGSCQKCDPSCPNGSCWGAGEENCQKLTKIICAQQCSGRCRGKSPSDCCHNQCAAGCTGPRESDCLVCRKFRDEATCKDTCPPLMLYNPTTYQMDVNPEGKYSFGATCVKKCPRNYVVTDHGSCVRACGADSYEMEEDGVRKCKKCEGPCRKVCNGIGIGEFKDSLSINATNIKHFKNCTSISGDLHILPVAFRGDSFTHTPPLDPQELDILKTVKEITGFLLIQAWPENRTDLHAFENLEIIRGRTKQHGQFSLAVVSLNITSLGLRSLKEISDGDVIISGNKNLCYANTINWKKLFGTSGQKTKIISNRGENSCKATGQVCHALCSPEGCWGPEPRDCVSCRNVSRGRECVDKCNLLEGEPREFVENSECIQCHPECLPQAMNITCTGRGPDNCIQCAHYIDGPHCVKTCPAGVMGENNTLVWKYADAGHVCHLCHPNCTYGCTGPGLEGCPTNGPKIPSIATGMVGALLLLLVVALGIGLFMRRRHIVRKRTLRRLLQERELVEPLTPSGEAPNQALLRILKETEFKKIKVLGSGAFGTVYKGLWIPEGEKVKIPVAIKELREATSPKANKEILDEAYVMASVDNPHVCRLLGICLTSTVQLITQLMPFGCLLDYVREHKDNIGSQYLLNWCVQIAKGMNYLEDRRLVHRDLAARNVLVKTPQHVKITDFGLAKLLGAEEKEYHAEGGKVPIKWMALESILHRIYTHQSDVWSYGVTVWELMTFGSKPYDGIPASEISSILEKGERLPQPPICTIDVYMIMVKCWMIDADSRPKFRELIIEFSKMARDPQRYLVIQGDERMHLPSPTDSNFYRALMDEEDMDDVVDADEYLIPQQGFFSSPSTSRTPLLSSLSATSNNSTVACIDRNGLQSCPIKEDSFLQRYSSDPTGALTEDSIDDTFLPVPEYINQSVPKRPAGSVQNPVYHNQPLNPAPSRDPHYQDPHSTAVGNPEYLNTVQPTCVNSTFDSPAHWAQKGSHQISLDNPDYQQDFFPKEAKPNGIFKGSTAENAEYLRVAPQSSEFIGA
In words: Wild-type EGFR enzyme HTRF inhibition assay. In kind it is biochemical. Particulars: 25 μM ATP, read-out: EGFR WT IC50. The method in brief:
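HTRF with 0.05 nM wild-type EGFR, 1 μM biotin-TK1 peptide, 25 μM ATP, 60 min at 23° C; detected with Eu-anti-TK1 antibody 2 nM and XL665 62.5 nM, 60 min at 23° C. Ten 3-fold doses, 300 nM to 0.015 nM final; IC50 by four-parameter fit of % inhibition.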

Assay [5] deals with T2, EGFR T790M/L858R (Homo sapiens, UniProt P00533, L858R/T790M).
T2 construct: purchased Life technology (Madison, Wis.)
T2 sequence (P00533 25-1210 T790M/L858R): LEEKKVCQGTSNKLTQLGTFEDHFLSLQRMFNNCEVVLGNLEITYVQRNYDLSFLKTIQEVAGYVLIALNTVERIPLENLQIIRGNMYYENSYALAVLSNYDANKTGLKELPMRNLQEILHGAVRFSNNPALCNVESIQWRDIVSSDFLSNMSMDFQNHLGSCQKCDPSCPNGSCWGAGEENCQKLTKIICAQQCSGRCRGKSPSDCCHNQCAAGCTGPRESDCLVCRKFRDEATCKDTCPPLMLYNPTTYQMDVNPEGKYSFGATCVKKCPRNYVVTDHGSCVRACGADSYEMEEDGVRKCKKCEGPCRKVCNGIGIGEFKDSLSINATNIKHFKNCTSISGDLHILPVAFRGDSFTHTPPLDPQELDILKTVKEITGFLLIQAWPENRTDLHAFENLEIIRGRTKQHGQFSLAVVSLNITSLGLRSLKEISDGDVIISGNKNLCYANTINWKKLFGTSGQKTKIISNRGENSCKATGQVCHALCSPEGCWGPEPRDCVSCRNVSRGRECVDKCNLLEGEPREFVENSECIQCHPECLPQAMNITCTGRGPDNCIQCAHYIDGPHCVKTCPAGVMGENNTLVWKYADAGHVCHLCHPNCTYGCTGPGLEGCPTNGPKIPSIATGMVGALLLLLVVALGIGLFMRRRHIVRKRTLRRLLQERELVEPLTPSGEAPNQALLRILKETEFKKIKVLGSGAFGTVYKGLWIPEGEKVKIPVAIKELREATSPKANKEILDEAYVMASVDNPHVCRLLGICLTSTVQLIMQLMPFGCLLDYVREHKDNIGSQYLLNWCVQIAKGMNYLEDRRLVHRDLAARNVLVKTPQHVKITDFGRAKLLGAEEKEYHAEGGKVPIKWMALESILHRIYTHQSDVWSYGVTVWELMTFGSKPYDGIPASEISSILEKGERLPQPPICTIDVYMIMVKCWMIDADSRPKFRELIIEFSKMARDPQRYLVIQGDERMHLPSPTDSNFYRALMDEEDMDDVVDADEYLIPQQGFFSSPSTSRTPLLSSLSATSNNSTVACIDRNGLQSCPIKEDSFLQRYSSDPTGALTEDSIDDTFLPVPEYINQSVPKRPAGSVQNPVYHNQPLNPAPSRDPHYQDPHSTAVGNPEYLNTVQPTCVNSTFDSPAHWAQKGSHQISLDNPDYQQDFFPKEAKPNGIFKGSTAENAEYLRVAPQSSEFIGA
Nature of the assay: EGFR T790M/L858R enzyme HTRF inhibition assay. In kind it is biochemical. Particulars: 20 μM ATP, read-out: EGFR L858R/T79M IC50. Summed up: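 HTRF assay with 0.04 nM enzyme, 1 μM biotin-TK1 peptide and 20 μM ATP, 60 min at 23° C. Product detected with Eu-anti-TK1 antibody/XL665 (60 min at 23° C); compound at 10 doses, 300 nM to 0.015 nM final. IC50 from four-parameter fit.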
For orientation: TR-FRET usually uses a lanthanide donor and a delayed reading to cut background.

Assay [6] deals with T3, EGFR d746-750/T790M (Homo sapiens, UniProt P00533, DEL746-750/T790M).
T3 construct: purchased Carna Biosciences (Japan)
T3 sequence (P00533 with tags, fused parts or gaps DEL746-750/T790M limits assumed): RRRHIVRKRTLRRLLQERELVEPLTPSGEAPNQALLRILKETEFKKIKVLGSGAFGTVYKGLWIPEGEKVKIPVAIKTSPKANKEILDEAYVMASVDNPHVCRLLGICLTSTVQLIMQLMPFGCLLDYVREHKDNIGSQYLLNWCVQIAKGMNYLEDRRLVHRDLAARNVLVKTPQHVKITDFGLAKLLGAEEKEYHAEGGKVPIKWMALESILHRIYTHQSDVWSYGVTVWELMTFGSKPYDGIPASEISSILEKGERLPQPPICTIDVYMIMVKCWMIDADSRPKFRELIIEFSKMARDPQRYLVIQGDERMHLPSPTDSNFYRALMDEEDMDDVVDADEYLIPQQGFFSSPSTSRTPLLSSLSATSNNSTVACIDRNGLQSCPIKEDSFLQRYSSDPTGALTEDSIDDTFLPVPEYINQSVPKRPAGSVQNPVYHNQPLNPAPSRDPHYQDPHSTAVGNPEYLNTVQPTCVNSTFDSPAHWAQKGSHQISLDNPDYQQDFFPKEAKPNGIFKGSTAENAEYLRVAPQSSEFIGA
In words: EGFR d746-750/T790M enzyme HTRF inhibition assay. In kind it is biochemical. To be noted: 40 μM ATP. The method in brief: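 0.025 nM enzyme with 1 μM biotin-TK1 peptide and 40 μM ATP, 60 min at 23° C; compound tested at 10 doses, 300 nM to 0.015 nM final. HTRF read (Eu-anti-TK1 antibody 2 nM, XL665 62.5 nM, 60 min at 23° C); IC50 from four-parameter fit of % inhibition.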

Assay [7] relates to NCI-H1975 cells EGFR L858R/T790M. In words: NCI-H1975 cell viability assay (Cell Titer-Glo, 6 days). In kind it is cell-based. Particulars: Homo sapiens, 144 h. The method in brief:
(§4)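 A431 (EGFR WT) and NCI-H1975 (EGFR L858R/T790M) cells treated for 6 days at 37° C, in duplicate with 10 three-fold doses from 10 μM to 0.508 nM final. Viability read as CellTiter-Glo luminescence. IC50 from four-parameter fit of % inhibition.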

The subject of assay [8] is A431 cells EGFR WT. In words: A431 cell viability assay (Cell Titer-Glo, 6 days). Particulars: for pIC50: Homo sapiens, A-431, 144 h, A431 cells, 6 days; for A431:NCI-H1975 (ratio): ratio of cell IC50 A431 to NCI-H1975. In kind it is cell-based, human. Summed up:
as §4
In general terms: ATP-based viability assays read luminescence as a measure of living cells.

Assay [9] addresses T4, INSR (Homo sapiens, UniProt P06213).
T4 construct: purchased Life technology (Madison, Wis.)
Nature of the assay: INSR enzyme HTRF inhibition assay. Particulars: 35 μM ATP, read-out: INSR_IC50. In kind it is biochemical. Here is the method:
Enzyme: EGFR wild type, EGFR T790M/L858R, EGFR T790M and INSR were purchased from Life technology (Madison, Wis.), EGFR d746-750/T790M was purchased from Carna Biosciences (Japan).
HTRF Kit was purchased from Cis-Bio International which contained the Eu-labeled TK1 antibody, XL665 and biotin-labeled TK1 polypeptide substrates.
Detecting instrument: Envision (PerkinElmer).
The test compound was diluted 3-fold to obtain 10 doses of which the final concentration was from 300 nM to 0.015 nM.
INSR Enzyme Reaction Mixture System:
0.5 nM INSR, 1 μM biotin-TK1 peptide, 35 μM ATP enzyme buffer, a total of which was 10 μL. The reaction plate was white Proxiplate 384-Plus plate (PerkinElmer) and the mixture was reacted at 23° C. for 60 minutes.
Reaction Detection: 10 μL of detection reagent containing Antibody 2 nM and XL665 62.5 nM was added, and the reagent was incubated at 23° C. for 60 minutes. The plates were read by Envision.
The reading is converted to the suppression rate (%) by the following formula […]/(Max-Min)*100%. IC50 Data was measured by four-parameter curve fitting (Model 205 in XLFITS, IDBS).

pIC50: −log10 of the molar value.

T4 sequence (P06213 28-1382): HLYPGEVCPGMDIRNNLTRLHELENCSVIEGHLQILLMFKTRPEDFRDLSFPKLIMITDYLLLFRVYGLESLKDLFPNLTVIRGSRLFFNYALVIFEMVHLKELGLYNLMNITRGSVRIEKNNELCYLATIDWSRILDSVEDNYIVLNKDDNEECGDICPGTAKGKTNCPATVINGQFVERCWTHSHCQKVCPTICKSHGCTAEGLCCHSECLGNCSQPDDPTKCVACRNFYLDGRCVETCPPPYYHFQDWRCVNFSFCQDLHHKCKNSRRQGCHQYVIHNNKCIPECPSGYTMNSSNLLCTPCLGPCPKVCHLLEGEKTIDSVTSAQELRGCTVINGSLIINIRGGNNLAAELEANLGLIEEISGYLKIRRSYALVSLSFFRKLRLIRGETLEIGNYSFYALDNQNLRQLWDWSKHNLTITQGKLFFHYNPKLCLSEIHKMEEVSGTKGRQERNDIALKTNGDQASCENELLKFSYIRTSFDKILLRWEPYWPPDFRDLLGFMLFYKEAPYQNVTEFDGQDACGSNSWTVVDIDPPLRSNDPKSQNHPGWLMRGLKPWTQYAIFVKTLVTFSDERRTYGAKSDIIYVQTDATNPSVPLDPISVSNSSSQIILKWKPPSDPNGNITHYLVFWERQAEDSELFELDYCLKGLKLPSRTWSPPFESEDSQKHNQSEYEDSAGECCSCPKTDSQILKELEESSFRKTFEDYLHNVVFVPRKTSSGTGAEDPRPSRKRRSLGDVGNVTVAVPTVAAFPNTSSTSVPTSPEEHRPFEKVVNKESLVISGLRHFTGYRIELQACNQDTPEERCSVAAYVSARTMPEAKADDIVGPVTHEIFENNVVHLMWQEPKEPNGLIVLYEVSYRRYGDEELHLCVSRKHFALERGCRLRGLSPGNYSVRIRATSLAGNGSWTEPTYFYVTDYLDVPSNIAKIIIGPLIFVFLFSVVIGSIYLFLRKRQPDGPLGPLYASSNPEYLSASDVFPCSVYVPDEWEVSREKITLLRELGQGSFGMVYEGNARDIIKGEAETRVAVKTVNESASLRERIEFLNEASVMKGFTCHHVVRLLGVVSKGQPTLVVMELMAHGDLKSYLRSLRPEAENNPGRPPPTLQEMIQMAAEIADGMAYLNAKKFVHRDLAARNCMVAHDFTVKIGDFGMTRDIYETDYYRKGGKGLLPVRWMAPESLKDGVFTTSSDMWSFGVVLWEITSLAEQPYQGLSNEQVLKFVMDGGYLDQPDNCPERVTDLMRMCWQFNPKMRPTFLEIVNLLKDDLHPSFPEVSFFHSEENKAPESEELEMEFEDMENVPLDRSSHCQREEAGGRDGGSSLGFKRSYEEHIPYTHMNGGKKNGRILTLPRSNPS

For the compound `C=CC(=O)Nc1cc(Nc2nccc(-c3cn(C)c4ccccc34)n2)c(OC)cc1N(C)CCN(C)C` [AZD9291, reference compound], in assay [1], the “Tumor Volume (mm^3) 4 days” value turned out to be 86 mm^3, the “Tumor Volume (mm^3) 7 days” value was determined as 64 mm^3, the “Tumor Volume (mm^3) 11 days” value came out at 52 mm^3 and the “Tumor Volume (mm^3) 14 days” value came out at 66 mm^3. For the same compound, in assay [1], the “Tumor Volume (mm^3) 18 days” value is 25 mm^3. For the same compound, the “Tumor Volume (mm^3) 21 days” value in assay [1] (day 21, oral daily: compound 30 10 mg/kg, 33, 34, 40, 42, 43 20 mg/kg) is on record as 15 mm^3. In addition, the “Tumor Volume (mm^3) 0 day” value in [2] is listed as 149 mm^3. The “Tumor Volume (mm^3) 4 days” value in [3] (day 4, oral once daily: 33, 34, 40, 42, 43 20 mg/kg) is given as 153 mm^3. Also, in assay [3] (day 11, oral once daily: 33, 34, 40, 42, 43 20 mg/kg), the “Tumor Volume (mm^3) 11 days” value worked out at 219 mm^3. Besides, in assay [3] (day 18, oral once daily: 33, 34, 40, 42, 43 20 mg/kg), the “Tumor Volume (mm^3) 18 days” value is reported as 330 mm^3.

For `C=CC(=O)Nc1cc(Nc2ncc(F)c(-c3c4n(c5ccccc35)CCOC4)n2)c(OC)cc1N(C)CCN(C)C` [Embodiment 30, N-(5-((4-(3,4-Dihydro-1H-[1,4]oxazino[4,3-a]indol-10-yl)-5-fluoropyrimidin-2-yl)amino)-2-((2-(dimethylamino)ethyl)(methyl)amino)-4-methoxyphenyl)acrylamide], the pIC50 in assay [4] is 9.10. Besides, in assay [5], the pIC50 was 9.85. For the same compound, the pIC50 in assay [6] is 9.80. In addition, the pIC50 in assay [7] was 7.82. For the same compound, in [8], the pIC50 was 6.08 and the “A431:NCI-H1975 (ratio)” value is recorded as 55. Besides, in [9], the pIC50 was 6.41. Also, in assay [1], the “Tumor Volume (mm^3) 4 days” value is reported as 115 mm^3, the “Tumor Volume (mm^3) 7 days” value is 90 mm^3, the “Tumor Volume (mm^3) 11 days” value was found to be 48 mm^3 and the “Tumor Volume (mm^3) 14 days” value amounted to 34 mm^3. In addition, the “Tumor Volume (mm^3) 18 days” value in [1] was 22 mm^3.

For the compound `C=CC(=O)Nc1cc(Nc2nccc(-c3c4n(c5ccccc35)CCC4)n2)c(OC)cc1OCCN(C)C` [Embodiment 3, N-(5-((4-(2,3-Dihydro-1H-pyrrolo[1,2-a]indol-9-yl)pyrimidin-2-yl)amino)-2-(2-(dimethylamino)ethoxy)-4-methoxyphenyl)acrylamide], the pIC50 in assay [4] is 8.80; in assay [5], 9.68; in [6] it was 9.72; in assay [7] it was 7.17; in assay [8], 6.07; in [9] it was 6.05. For the same compound, the “A431:NCI-H1975 (ratio)” value in [8] worked out at 12.7.

For `C=CC(=O)Nc1cc(Nc2nccc(-c3c4n(c5cc(F)ccc35)CCOC4)n2)c(OC)cc1N(C)CCN(C)C` [Embodiment 38, N-(2-((2-(Dimethylamino)ethyl)(methyl)amino)-5-((4-(7-fluoro-3,4-dihydro-1H-[1,4]oxazino[4,3-a]indol-10-yl)pyrimidin-2-yl)amino)-4-methoxyphenyl)acrylamide], the pIC50 was 9.22 in [4]; 10.05 in assay [5]; 10.00 in [6]; 8.15 in assay [7]; 6.50 in [8]; 6.51 in [9]. The “A431:NCI-H1975 (ratio)” value in [8] is listed as 45.

For the compound `C=CC(=O)Nc1cc(Nc2nccc(-c3c4n(c5ccccc35)CCOC4)n2)c(OC)cc1N(C)CCNC` [Embodiment 27, N-(5-((4-(3,4-Dihydro-1H-[1,4]oxazino[4,3-a]indol-10-yl)pyrimidin-2-yl)amino)-4-methoxy-2-(methyl(2-(methylamino)ethyl)amino)phenyl)acrylamide], the pIC50 was 8.77 in [4]; 9.68 in assay [5]; 9.72 in assay [6]; 8.30 in [7]; 6.31 in [8]; 6.24 in [9]. Further, in assay [8], the “A431:NCI-H1975 (ratio)” value worked out at 97.

As for `C=CC(=O)Nc1cc(Nc2nccc(-c3c4n(c5ccccc35)CCOC4)n2)c(OC)cc1N(C)CCN(C)CC` [Embodiment 18, N-(5-((4-(3,4-Dihydro-1H-[1,4]oxazino[4,3-a]indol-10-yl)pyrimidin-2-yl)amino)-2-((2-(ethyl(methyl)amino)ethyl)(methyl)amino)-4-methoxyphenyl)acrylamide], the pIC50 was 8.72 in assay [4]; 9.70 in assay [5]; 9.74 in assay [6]; 8.15 in assay [7]; 6.29 in [8]; 6.20 in assay [9]. In [8], the “A431:NCI-H1975 (ratio)” value is given as 74.
